The subject of assay [1] is LoVo human colon tumor cells. Put plainly: LoVo human colon tumor xenograft in athymic nude mice, oral treatment with or without single 7 Gy irradiation on day 32. Type of assay: in vivo. An excerpt: Male athymic nude mice weighing approximately 22 to 25 g were inoculated subcutaneously in the inguinal region with 1×10^6 of LoVo human colon tumor cells (LoVo cells) on day 0. After three weeks to allow tumors to become established (diameter approximately 0.5 to 1 cm), treatment was started with solvent or compound 75 via the oral route, and either with or without a single shot irradiation on day 32. Parameters for activity were tumor growth rate and weight of the tumors at day 42.
Compound 75 was dissolved in water and acidified with 1 N HCl solution to pH 2.5 and administered orally (po) as 0.1 ml of compound solution per 10 g mouse body weight twice daily (bid). The dose administered was either 50 or 100 mg compound per kg bodyweight; treatment either preceded irradiation (days 22-32), followed irradiation (days 32-42) or continued throughout the duration of the experiment (days 22-42).
In each arm of the experiment 16 animals were included. The column ‘tumor (g)’ contains the median of the tumor weight of the animals sacrificed at day 42 of the experiment. FIGS. 1 and 2 represent the observed data in graphical form.
In general terms: In xenograft studies the graft and the host belong to different species.

Assay [2] has as its system SF763. Nature of the assay: Radiosensitization of radioresistant human glioma cell line SF763 (surviving fraction after 2 Gy). Type of assay: cell-based. The note with it: 2 nM, 48 h prior to irradiation (2 Gy). As to the method: (§1) Radioresistant human glioma cell lines (SF763, U87, U251) were treated with compound 75, 48 h prior to irradiation (2 Gy). The dose administered was 0.4 nM for U251 and 2 nM for SF763 and U87.

Assay [3] concerns U87. Put plainly: Radiosensitization of radioresistant human glioma cell line U87 (surviving fraction after 2 Gy). The class given is cell-based. The note with it: 2 nM, 48 h prior to irradiation (2 Gy). The protocol:
as §1

Assay [4] deals with U251. Put plainly: Radiosensitization of radioresistant human glioma cell line U251 (surviving fraction after 2 Gy). The class given is cell-based. The note with it: 0.4 nM, 48 h prior to irradiation (2 Gy). The protocol:
as §1

The structures appear in SMILES notation.

For `Cn1cncc1[C@@](N)(c1ccc(Cl)cc1)c1ccc2c(c1)c(-c1cccc(Cl)c1)cc(=O)n2C` [Compound 75, (+)-(R)-6-[amino(4-chlorophenyl)(1-methyl-1H-imidazol-5-yl)methyl]-4-(3-chloro-phenyl)-1-methyl-2(1H)-quinolinone], the “tumor (g), median tumor weight at day 42” value in assay [1] (Group II, 50 mpk po bid, day 22-42, irradiation none) was found to be 0.255 g; in assay [1] (Group III, 50 mpk po bid, day 22-32, irradiation none), 0.273 g; in assay [1] (Group IV, 50 mpk po bid, day 32-42, irradiation none), 0.295 g; in assay [1] (Group IX, 50 mpk po bid, day 22-32, irradiation 7 Gy on day 32), 0.156 g; in assay [1] (Group V, 100 mpk po bid, day 22-42, irradiation none) it was 0.205 g; in assay [1] (Group VI, 100 mpk po bid, day 22-32, irradiation none) it was 0.234 g. For the same compound, the “tumor (g), median tumor weight at day 42” value amounted to 0.277 g in assay [1] (Group VII, 100 mpk po bid, day 32-42, irradiation none); 0.207 g in assay [1] (Group VIII, 50 mpk po bid, day 22-42, irradiation 7 Gy on day 32); 0.259 g in assay [1] (Group X, 50 mpk po bid, day 32-42, irradiation 7 Gy on day 32); 0.164 g in assay [1] (Group XI, 100 mpk po bid, day 22-42, irradiation 7 Gy on day 32); 0.141 g in assay [1] (Group XII, 100 mpk po bid, day 22-32, irradiation 7 Gy on day 32); 0.214 g in assay [1] (Group XIII, 100 mpk po bid, day 32-42, irradiation 7 Gy on day 32). For the same compound, the “effect of treatment on the effect of irradiation (statistical analysis)” value in assay [1] (both 50 and 100 mpk) is on record as “potentiates the effect of irradiation”. The “effect of pretreatment and irradiation on tumor weight compared to irradiation alone” value in assay [1] (pretreatment, both 50 and 100 mpk, plus irradiation) is “reduces tumor weight in a statistically significant manner”. The entries for the “decrease of surviving fraction after irradiation” value in assay [2], in assay [3] and in assay [4] were “about 55%”, “about 55%” and 25%, respectively.

Values taken from patent US6545020B1, “Farnesyl Protein transferase inhibitors with in vivo radiosensitizing properties” (Janssen Pharmaceutica, N.V., priority 1998, dated 2003).
